Assays:
[1] = tested on: neointima formation; conditions: intraluminal exposure of a denuded rat carotid artery; cited from earlier work
[2] = target: cdk1/cyclin B (Homo sapiens, UniProt P06493); assay: Assay for inhibition of cdk1 (cdk1/cyclin B), 32P filter plate; format: biochemical; conditions: retinoblastoma protein substrate, read-out: CYCK1B IC50
Experimental: (§1) Assay for Inhibition of cdk1 and cdk2
(§2) Cdk1 and cdk2 enzyme assays for IC50 determinations and kinetic evaluation were performed as follows. 96-well filter plates (Millipore MADVN6550) were used. The total volume of each well in the assay was 0.1 mL in Buffer A (20 mM TRIS (pH 7.4), 50 mM NaCl, 1 mM dithiothreitol, 10 mM MgCl2), to which was added […] containing 0.25 μCi [^32P]ATP, 20 ng enzyme (cdk2/cyclin E, cdk2/cyclin A, or cdk1/cyclin B), 1 μg retinoblastoma protein, and appropriate dilutions in Buffer A of the particular test compound. Buffer A alone without added test compound was employed as a control for no inhibition. Buffer A containing excess EDTA was used to determine the level of background ^32P in the absence of enzyme activity. All components except the ATP were added to the wells, and the plate was placed on a plate mixer for 2 minutes. The reaction was initiated by addition of [^32P]ATP, and the plate was incubated at 25° C. for 15 minutes. The reaction was terminated by addition of 0.1 mL 20% TCA. The plate was kept at 4° C. for at least 1 hour to allow the substrate to precipitate. The wells were then washed five times with 0.2 mL 10% TCA, and ^32P incorporation was determined with a beta plate counter (Wallac Inc., Gaithersburg, Md.). The IC50 of the test compound was determined using the median effect method (Chou, T-C and Talalay, P. Applications of the median effect principle for the assessment of low-dose risk of carcinogens and for the quantitation of synergism and antagonism of chemotherapeutic agents. In: New Avenues in Developmental Cancer Chemotherapy (Eds. Harrap, K. T. and Connors, T. A.), pp. 37–64. Academic Press, New York, 1987).

[3] = target: cdk2/cyclin A (Homo sapiens, UniProt P24941); assay: Assay for inhibition of cdk2 (cdk2/cyclin A), 32P filter plate; format: biochemical; conditions: retinoblastoma protein substrate, read-out: CYCK2A IC50
Experimental: as §1, §2

[4] = target: cdk2/cyclin E (Homo sapiens, UniProt P24941); assay: Assay for inhibition of cdk2 (cdk2/cyclin E), 32P filter plate; format: biochemical; conditions: retinoblastoma protein substrate, read-out: CYCK2E IC50
Experimental: as §1, §2

[5] = target: cdk4/Cyclin D (Homo sapiens, UniProt P11802); assay: Assay for inhibition of cdk4/Cyclin D, 32P filter plate; format: biochemical; conditions: for IC50: cdk4, 25 μM ATP, retinoblastoma protein substrate, read-out: CYCK4 IC50
Experimental: Assay for Inhibition of cdk4/Cyclin D
The cdk4 enzyme assay for IC50 determination and kinetic evaluation was performed as follows: 96-well filter plates (Millipore MADVN6550) were used. The total volume was 0.1 mL containing a final concentration of buffer A (20 mM TRIS (tris[hydroxymethyl]aminomethane) (pH 7.4), 50 mM NaCl, 1 mM dithiothreitol, 10 mM MgCl2), 25 μM ATP containing 0.25 μCi [^32P]ATP, 20 ng Cdk4, 1 μg retinoblastoma protein, and the test compound at appropriate dilutions in buffer A. Buffer A alone without added test compound was employed as a control for no inhibition. Buffer A containing excess EDTA was used to determine the level of background ^32P in the absence of enzyme activity. All components except the ATP were added to the wells, and the plate was placed on a plate mixer for 2 minutes. The reaction was started by adding [^32P]ATP, and the plate was incubated at 25° C. for 15 minutes. The reaction was terminated by addition of 0.1 mL 20% trichloroacetic acid (TCA). The plate was kept at 4° C. for at least 1 hour to allow the substrate to precipitate. The wells were then washed five times with 0.2 mL 10% TCA, and ^32P incorporation was determined with a beta plate counter (Wallac Inc., Gaithersburg, Md.).

[6] = target: T1, human FGF1(flg) receptor tyrosine kinase (Homo sapiens, UniProt P11362); assay: FGF receptor (FGFr) tyrosine kinase assay; format: biochemical; conditions: FGFr enzyme lysate, Poly (4:1) glutamate-tyrosine substrate
T1 construct: amplify a fragment of DNA that codes for the intracellular tyrosine kinase domain; made in house; host or cells: SF9 insect cells (baculovirus); crude cell lysate used
Source text: (§3) For PDGF receptor (PDGFr) and FGF receptor (FGFr) tyrosine kinase assays, full-length cDNAs for the mouse PDGF-β and human FGF1(flg) receptor tyrosine kinases were obtained from J. Escobedo and prepared as described previously (Escobedo et al., J. Biol. Chem., 1988;262:1482–1487). PCR primers were designed to amplify a fragment of DNA that codes for the intracellular tyrosine kinase domain. The fragment was inserted into a baculovirus vector, cotransfected with AcMNPV DNA, and the recombinant virus was isolated. SF9 insect cells are infected with the virus to overexpress the protein, and the cell lysate was used for the assay.
(§4) PDGFr and FGFr enzyme assays were performed in 96-well plates (100 μL/incubation/well), and conditions were optimized to measure the incorporation of ^32P from [γ^32P]ATP into a glutamate-tyrosine co-polymer substrate. Briefly, to each well was added 82.5 μL incubation buffer containing 25 mM Hepes (pH 7.0), 150 mM NaCl, 0.1% Triton X-100, 0.2 mM PMSF, 0.2 mM Na3VO4, 10 mM MnCl2, and 750 μg/mL Poly (4:1) glutamate-tyrosine followed by 2.5 μL inhibitor and 5 μL enzyme lysate (7.5 μg/μL FGFr or 6.0 μg/μL PDGFr) to initiate the reaction. Following a 10-minute incubation at 25° C., […] [γ^32P]ATP (0.4 μCi plus 50 μM ATP) was added to each well, and samples were incubated for an additional 10 minutes at 25° C. The reaction was terminated by the addition of 100 μL 30% trichloroacetic acid (TCA) containing 20 mM sodium pyrophosphate and precipitation of material onto glass fiber mats (Wallac). Filters were washed three times with 15% TCA containing 100 mM sodium pyrophosphate, and the radioactivity retained on the filters was counted in a Wallac 1250 Betaplate reader. Nonspecific activity was defined as radioactivity retained on the filters following incubation of samples with buffer alone (no enzyme). Specific enzymatic activity (enzyme plus buffer) was defined as total activity minus nonspecific activity. The concentration of a compound that inhibited specific activity by 50% (IC50) was determined based on the inhibition curve.

[7] = target: T2, mouse PDGF-β receptor tyrosine kinase (Mus musculus, UniProt P05622); assay: PDGF receptor (PDGFr) tyrosine kinase assay; format: biochemical; conditions: PDGFr enzyme lysate, Poly (4:1) glutamate-tyrosine substrate
T2 construct: amplify a fragment of DNA that codes for the intracellular tyrosine kinase domain; made in house; host or cells: SF9 insect cells (baculovirus); crude cell lysate used
Source text: as §3, §4

[8] = tested on: herpes simplex virus (HSV); conditions: related art (Schang et al.); cited from earlier work

T1 sequence (P11362 478-767 limits assumed): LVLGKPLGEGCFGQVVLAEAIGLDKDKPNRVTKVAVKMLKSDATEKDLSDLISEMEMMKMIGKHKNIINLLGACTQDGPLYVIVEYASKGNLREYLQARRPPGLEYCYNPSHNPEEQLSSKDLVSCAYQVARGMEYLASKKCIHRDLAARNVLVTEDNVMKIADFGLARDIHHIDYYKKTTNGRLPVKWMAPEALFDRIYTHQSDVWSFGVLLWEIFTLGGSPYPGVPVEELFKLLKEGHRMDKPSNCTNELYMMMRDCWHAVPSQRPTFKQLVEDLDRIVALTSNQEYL
T2 sequence (P05622 599-961 limits assumed): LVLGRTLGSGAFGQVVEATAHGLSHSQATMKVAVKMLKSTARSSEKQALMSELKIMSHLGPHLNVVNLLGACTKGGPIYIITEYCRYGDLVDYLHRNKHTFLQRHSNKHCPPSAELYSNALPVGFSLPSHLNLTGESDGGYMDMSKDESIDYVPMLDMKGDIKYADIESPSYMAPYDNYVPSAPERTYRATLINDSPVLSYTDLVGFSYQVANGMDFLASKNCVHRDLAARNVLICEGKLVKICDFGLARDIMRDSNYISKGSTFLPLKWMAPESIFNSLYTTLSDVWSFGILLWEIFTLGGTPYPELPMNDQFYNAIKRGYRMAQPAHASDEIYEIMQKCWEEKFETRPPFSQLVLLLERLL
Sequence of cdk4/Cyclin D (P11802 whole entry, species assumed): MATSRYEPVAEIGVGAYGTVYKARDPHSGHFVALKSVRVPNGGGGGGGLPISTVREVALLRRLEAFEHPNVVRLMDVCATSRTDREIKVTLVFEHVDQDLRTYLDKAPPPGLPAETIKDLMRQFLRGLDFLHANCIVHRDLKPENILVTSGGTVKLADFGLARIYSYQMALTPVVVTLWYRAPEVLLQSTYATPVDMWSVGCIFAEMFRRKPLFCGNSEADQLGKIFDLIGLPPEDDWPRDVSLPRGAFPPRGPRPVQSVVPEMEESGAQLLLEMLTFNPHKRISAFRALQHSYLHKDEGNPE
Sequence of cdk4/Cyclin D (P24385 whole entry partner, species assumed): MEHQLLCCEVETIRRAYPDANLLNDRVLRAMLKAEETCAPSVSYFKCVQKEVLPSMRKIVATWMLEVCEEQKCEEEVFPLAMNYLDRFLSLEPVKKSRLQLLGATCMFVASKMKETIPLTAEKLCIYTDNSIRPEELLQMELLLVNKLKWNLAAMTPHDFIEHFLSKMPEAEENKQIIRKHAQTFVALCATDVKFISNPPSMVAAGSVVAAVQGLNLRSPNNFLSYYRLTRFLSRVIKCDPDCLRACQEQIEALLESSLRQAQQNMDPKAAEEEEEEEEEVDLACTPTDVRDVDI
Sequence of cdk1/cyclin B (P06493 whole entry, species assumed): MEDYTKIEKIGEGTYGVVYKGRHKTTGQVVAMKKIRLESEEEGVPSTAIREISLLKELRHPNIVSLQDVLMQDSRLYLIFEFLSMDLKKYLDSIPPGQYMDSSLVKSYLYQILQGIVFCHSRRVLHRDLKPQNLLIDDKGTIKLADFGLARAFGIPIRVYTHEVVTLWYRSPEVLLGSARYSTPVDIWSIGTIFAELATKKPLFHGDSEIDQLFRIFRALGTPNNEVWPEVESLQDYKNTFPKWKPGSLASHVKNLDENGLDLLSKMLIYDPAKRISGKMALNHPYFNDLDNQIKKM
Sequence of cdk1/cyclin B (P14635 whole entry partner, species assumed): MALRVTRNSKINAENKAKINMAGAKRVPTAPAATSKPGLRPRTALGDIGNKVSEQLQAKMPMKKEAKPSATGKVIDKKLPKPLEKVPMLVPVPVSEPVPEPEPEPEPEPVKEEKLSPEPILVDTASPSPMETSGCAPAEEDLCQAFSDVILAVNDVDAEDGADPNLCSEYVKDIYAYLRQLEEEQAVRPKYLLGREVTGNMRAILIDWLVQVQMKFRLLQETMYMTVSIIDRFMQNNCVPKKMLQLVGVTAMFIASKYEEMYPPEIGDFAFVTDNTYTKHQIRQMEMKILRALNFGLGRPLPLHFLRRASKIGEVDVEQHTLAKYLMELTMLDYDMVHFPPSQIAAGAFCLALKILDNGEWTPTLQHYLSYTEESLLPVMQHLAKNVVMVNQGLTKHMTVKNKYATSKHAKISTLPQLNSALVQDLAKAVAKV

IC50 [2] [nM] | IC50 [3] [nM] | IC50 [4] [nM] | IC50 [5] [nM] | selectivity for Cdk4 over cdk1, cdk2, FGF and PDGF ([5]; conclusion from Table 2) | IC50 [6] [nM] | IC50 [7] [nM] | SMILES | inhibition of neointima formation [1] | HSV replication [8]
– | – | – | – | – | – | – | COc1ccc(CNc2nc(N(CCO)CCO)nc3c2ncn3C(C)C)cc1 [CVT-313] | greater than 80% | –
360 | 106 | 145 | 5 | specifically inhibits Cdk4 | 179 | 1070 | O=S1(=O)C=Cc2cnc(Nc3ccc(N4CCNCC4)cc3)nc2N1C1CCCC1 [Compound 4, (1-Cyclopentyl-2,2-dioxo-1,2-dihydro-2l^6-thia-1,6,8-triaza-naphthalen-7-yl)-(4-piperazin-1-yl-phenyl)-amine] | – | –
3600 | 294 | 600 | 1.3 | – | – | – | CC1(C)CN(c2ccc(Nc3ncc4c(n3)N(C3CCCC3)S(=O)(=O)C=C4)cc2)CCN1 [Compound 6, (1-Cyclopentyl-2,2-dioxo-1,2-dihydro-2l^6-thia-1,6,8-triaza-naphthalen-7-yl)-[4-(3,3-dimethyl-piperazin-1-yl)-phenyl]-amine] | – | –
36000 | 5450 | 26000 | 93 | – | 575 | 290 | CC1=Cc2cnc(Nc3ccc(N4CCNCC4)cc3)nc2N(C2CCCC2)S1(=O)=O [Compound 10, (1-Cyclopentyl-3-methyl-2,2-dioxo-1,2-dihydro-2l^6-thia-1,6,8-triaza-naphthalen-7-yl)-(4-piperazin-1-yl-phenyl)-amine] | – | –
– | 4000 | > 5000 | 50 | – | 1030 | 216 | CCC1=Cc2cnc(Nc3ccc(N4CCNCC4)cc3)nc2N(C2CCCC2)S1(=O)=O [Compound 14, (1-Cyclopentyl-3-ethyl-2,2-dioxo-1,2-dihydro-2l^6-thia-1,6,8-triaza-naphthalen-7-yl)-(4-piperazin-1-yl-phenyl)-amine] | – | –
4140 | 930 | 930 | 45 | – | – | – | O=S1(=O)CCc2cnc(Nc3ccc(N4CCNCC4)cc3)nc2N1C1CCCC1 [Compound 16, (1-Cyclopentyl-2,2-dioxo-1,2,3,4-tetrahydro-2l^6-thia-1,6,8-triaza-naphthalen-7-yl)-(4-piperazin-1-yl-phenyl)-amine] | – | –
– | – | – | – | – | – | – | CC[C@H](CO)Nc1nc(NCc2ccccc2)c2ncn(C(C)C)c2n1 [roscovitine] | – | inhibited

From patent publication US7026313B2, “2-thia-1,6,8-triaza-naphthalene-2,2-dioxides are kinase inhibitors” (Warner-Lambert Company, priority 2002, dated 2006)
